The test system of data set [1] is TCCSUP bladder cancer cell line. The data set can be described thus: CellTiter-Glo viability assay, TCCSUP. It counts as cell-based. The following applies: Homo sapiens, TCC-SUP, FGFR3 status WT, 72 hours, read-out: Ganetespib IC50. The procedure:
(§1) Cellular viability was assessed using the CellTiter-Glo Luminescent Cell Viability Assay (Promega) according to manufacturer protocols. Bladder cancer cell lines were seeded into 96-well plates based on optimal growth rates determined empirically for each line. Twenty-four hours after plating, cells were dosed with graded concentrations of ganetespib for 72 hours. CellTiter-Glo was added (50% v/v) to the cells, and the plates incubated for 10 minutes prior to luminescent detection in a SpectraMax Plus 384 microplate reader (Molecular Devices). Data were normalized to percent of control and IC50 values used to determine the sensitivity of each line. For the comparative analyses with ganetespib and BGJ398, RT112 cells were treated with graded concentrations of each compound for 72 hours and cell viability measured as above. For the evaluation of apoptotic induction, caspase activity was assessed using the Caspase-Glo 3/7 assay (Promega) according to manufacturer protocols. Twenty-four hours after plating, RT112 cells were treated with graded concentrations of ganetespib for 24 hours. Caspase-Glo was added to cells (50% v/v) and the plates incubated for 1 hour prior to luminescent detection.

In data set [2] the test system is SW-1710 bladder cancer cell line. Kind of data set: CellTiter-Glo viability assay, SW-1710. It counts as cell-based. Particulars: Homo sapiens, SW1710, FGFR3 status WT, 72 hours, read-out: Ganetespib IC50. As to the method: as §1
In data set [3] the test system is RT112 bladder cancer cell line. The data set can be described thus: CellTiter-Glo viability assay, RT112. It counts as cell-based. Particulars: Homo sapiens. As to the method: as §1
The subject of data set [4] is 639-V bladder cancer cell line. The data set can be described thus: CellTiter-Glo viability assay, 639-V. The data set is classed as cell-based. The following applies: Homo sapiens, FGFR3 status R248C, 72 hours, read-out: Ganetespib IC50. As to the method:
as §1
A general note: ATP-based viability assays read luminescence as a measure of living cells.

Another data set concerns SW1463 cells. Kind of data set: Cell viability assay, SW1463 colorectal cancer cells. Particulars: Homo sapiens, read-out: IC50 based on cell viability. As to the method:
(§2) 24 hours after transfection, […] were seeded in triplicate in 96-well plates one day before treatment. Cells were treated with inhibitors and drugs for 48 hours and subjected to the CellTiterGlo Luminescent Cell Viability assay (Promega, Madison Wis., USA).

The test system of data set [5] is FGFR3-TAAC3 in RT112 cells. Kind of data set: Western blotting of FGFR3-TAAC3 and signaling proteins in RT112 cells. It counts as cell-based. The following applies: 200 nM ganetespib. The procedure:
Following in vitro assays, tumor cells were disrupted in lysis buffer on ice for 10 minutes. Lysates were clarified by centrifugation and equal amounts of proteins resolved by SDS-PAGE before transfer to nitrocellulose membranes (Bio-Rad). Membranes were blocked with StartingBlock T20 blocking buffer (Thermo Scientific) and immunoblotted with the indicated antibodies. Antibody-antigen complexes were visualized using an Odyssey system (LI-COR).
On the technique in general: Immunoblotting shows a protein as a band on a membrane.

For data set [6], the system named is KU-19-19 bladder cancer cell line. The data set can be described thus: CellTiter-Glo viability assay, KU-19-19. It counts as cell-based. Particulars: Homo sapiens, FGFR3 status WT, 72 hours, read-out: Ganetespib IC50. The procedure:
as §1

In data set [7] the test system is BFTC bladder cancer cell line. The data set can be described thus: CellTiter-Glo viability assay, BFTC. It counts as cell-based. Particulars: FGFR3 status WT, 72 hours, read-out: Ganetespib IC50. As to the method:
as §1

Data set [8] concerns 5637 bladder cancer cell line. The data set can be described thus: CellTiter-Glo viability assay, 5637. The data set is classed as cell-based. The following applies: FGFR3 status WT, 72 hours, read-out: Ganetespib IC50. The procedure: as §1
Data set [9] has as its system HT29 cells. The data set can be described thus: LC-MS/MS bioanalysis of ganetespib in HT29 cells. The data set is classed as in vitro ADME, human. Particulars: 1 μM ganetespib, 8 hr. As to the method: Colon cancer cells were treated with 1 μM ganetespib for 5, 15, 30, 60 or 480 minutes. At each time point, media was collected and cell lysates were generated for subsequent bioanalysis of secreted and intracellular concentrations of ganetespib and its glucuronides. Equal protein concentrations from cell lysates or equal volumes of media were used for the bioanalysis. Samples were extracted by protein precipitation and analyzed by LC-MS/MS using an Agilent 1100 HPLC interfaced to an API 4000 tandem mass spectrometer (Applied Biosystems). A Phenomenex Kinetex 2.6 μm C18 (30×2.1 mm) column was used with a run time of 3.5 min per sample.

Data set [10] has as its system panel of eleven CRC-derived cell lines. Kind of data set: Proliferation assay in CRC-derived cell lines (Celigo confluence). The data set is classed as cell-based. The following applies: Homo sapiens, 96 h; range across eleven CRC cell lines; four days; read-out: Drug concentrations that inhibited the growth rate by 50%. The procedure: Eleven cell lines derived from human colorectal cancers (CRC) were cultured in RPMI (Invitrogen, Darmstadt, Germany) supplemented with 10% FCS (ThermoScientific, Waltham Mass., USA), 2 mM L-glutamine and Penicillin-Streptomycin (Invitrogen). Cell-line cross-contaminatino was excluded using short tandem repeat profiling. Specific knockdown of target genes was performed using pre-designed Silencer Select siRNAs (s231075 and s231076, designated s75 and s76) or control siRNAs (scrambled, all from Ambion, Hamburg, Germany) with a final concentration of 5 nM. Overexpression was performed with pCMV-SPORT6 vector constructs. For both up- and downregulation, Lipofectamine 2000 (Invitrogen) was applied in a forward transfection protocol. Ganetespib (Synta Pharma, Lexington Mass., USA) and 17AAG (Calbiochem, Darmstadt, Germany) were dissolved in DMSO (50 mM and 5 mM stocks, respectively) and diluted to the indicated concentrations with culture medium.
For cell proliferation analysis, cells were seeded at 10^5 cells/well in 12-well plates 24 hours prior to treatment. […] Over the course of the 4-day treatment, cell confluence was measured by brightfield microscopy using a Celigo Adherent Cell Cytometer (Brooks, Chelmsford Mass., USA). Confluence was calculated with the Celigo software program.

The test system of data set [11] is T24 bladder cancer cell line. The data set can be described thus: CellTiter-Glo viability assay, T24. It counts as cell-based. Particulars: FGFR3 status WT, 72 hours, read-out: Ganetespib IC50. The procedure:
as §1

Data set [12] concerns HT29 cells. The data set can be described thus: Cell viability assay, HT29 colorectal cancer cells. The following applies: Homo sapiens, HT-29, read-out: IC50 based on cell viability. As to the method: as §2

Read-outs that look alike come from different tables or passages of the source. Where only a bound is given, the exact number is not on record here.

For the compound `CC(C)c1cc(-c2n[nH]c(=O)n2-c2ccc3c(ccn3C)c2)c(O)cc1O` [ganetespib], the IC50 in [1] is 0.142 µM; in data set [2], 0.006 µM; in data set [3] (RT-112, 72-hour combination viability assay, single inhibitor, read-out: approximate IC50 concentrations), about 0.0096 µM; in data set [3] (RT-112, FGFR3 status FGFR3-TACC3, 72 hours, read-out: Ganetespib IC50) it was 0.009 µM; in data set [4], 0.01 µM; with SW1463 cells, 0.1 µM. In addition, the IC50 was 0.036 µM in data set [6]; 0.017 µM in [7]; 0.044 µM in data set [8]; 0.036 to 2.5 µM in data set [10]; 0.007 µM in data set [11]; 2 µM in the data set with HT29 cells [12]. Also, in data set [5], the “time to destabilization of the FGFR3-TAAC3 fusion and alterations in downstream signaling” value is at most 4 h. The ganetespib present in the data set on HT29 cells [9] is on record as 13 nM.

Values taken from US20160324863A1, “TARGETED CANCER TREATMENT BY HSP90 INHIBITORS GANETESPIB AND NVP-AUY922” (SYNTA PHARMACEUTICALS CORP., priority 2014, published 2016).
